According to patent US20210269479A1, “USE OF CY[…] FOR TREATING CANCER” (Hepion Pharmaceuticals, Inc., priority 2020, published 2021):

Legend:
[1] = test system: human precision cut liver slices (PCLS); experiment: RNA-Seq of PCLS, Stimulation Protocol (TGFb/PDGF + CRV vs TGFb/PDGF + Vehicle); type: cell-based
Protocol: PCLS were obtained from 5 human donors who underwent resection of liver cancer. Replicate slices were collected from healthy margins of the resections and cultured for 4 or 6 days depending on the experimental protocol. In the Nonstimulation Protocol slices were cultured for 6 days and treated for the entire period with DMSO vehicle or 5 μM CRV431. In the Stimulation Protocol slices were rested for 1 day and then administered the cytokines, TGFβ and PDGF-BB, for 3 days to stimulate inflammation and fibrosis. DMSO vehicle, CRV431 (1 and 5 μM), Alk5i (10 μM), obeticholic acid (5 μM), elafibranor (5 μM), resmetirom (5 μM), and Aramchol (5 μM) were administered individually as drug treatments in the Stimulation Protocol concurrent with TGFβ+PDGF-BB. Culture medium treatments were replaced daily.
(d) Gene expression by RNA-Seq. RNA sequencing of the complete transcriptome (30 million reads per sample) was conducted on vehicle and 5 μM CRV431 treatment groups from 3 donors both from the Nonstimulation and Stimulation Protocols. Data were analyzed by bioinformatics software programs to identify genes that were differentially expressed between vehicle and CRV431 treatments.
For the evaluation done for (d), 12 samples corresponding to 3 different donor slides which underwent 4 different treatments were studied. the comparisons carried out in this analysis are: (1) TGFb/PDGF+CRV vs TGFb/PDGF+Vehicle (V), and (2) Non-stimulated+CRV vs Non-stimulated+Vehicle.
Heatmaps were also generated to plot significant differently expressed genes for the comparison TGFb/PDGF+CRV and TGFb/PDGF+Vehicle (p-adjust<0.05, log fold change>0.5). The heatmap with the samples grouped by group is shown in FIG. 3A to observe the different expression pattern present within the group (blue=vehicle; red=CRV). The same significant genes were also plotted into another heatmap (FIG. 3B) but the samples are now plotted grouped by donor in order to observe the differences between donors (blue=vehicle; red=CRV).
Significant differently expressed genes that were identified in the comparison TGFb/PDGF+CRV and TGFb/PDGF+Vehicle ([…], log fold change>0.5) are shown in Table 2. The fold change is relative to the treatment (CRV).
As shown in the PCA analysis, there is a strong effect of the donor. Therefore, each donor was analyzed individually. Counts comparison was performed for TGFb/PDGF+[…] vs TGFb/PDGF+Vehicle by donor. […] Therefore the vehicle group had at least 300 copies less than CRV treatment. In other words, the treatment had at least 300 copies more than the Vehicle. After doing this selection individually for each donor, a venn diagram was plotted showing the overlapping between all three donors.
So, they had at least 300 copies less in the CRV treatment compared to the vehicle. After doing the selection individually for each donor, a venn diagram was plotted showing the overlapping between all three donors.

[2] = test system: fibroblastic cells (IPF lung fibroblasts, cardiac fibroblasts, dermal fibroblasts, renal mesangial cells, LX2 hepatic stellate cell line); experiment: Procollagen and fibronectin (ECM) secretion from fibroblastic cells, ELISA; type: cell-based
Excerpt: For example, as described herein, CRV431 can regulate oncogenes, and have anti-oncogenic activities. CRV431 can decrease production of the extracellular matrix (ECM) molecules, collagen and fibronectin, from fibroblastic cells derived from five cell types, including lung fibroblasts from a patient with idiopathic pulmonary fibrosis (“IPF”), cardiac fibroblasts, dermal (skin) fibroblasts, renal mesangial cells, and the LX2 hepatic stellate cell line. It is known that IPF is an aggressive fibrotic disease in tremendous need of new treatments. […] The extent of inhibition was similar whether or not the cells were stimulated with the profibrotic agent, transforming growth factor-beta (TGFβ), consistent with direct effects on ECM synthesis.

[3] = TGFb/PDGF + CRV vs TGFb/PDGF + Vehicle, 5 μM
[4] = presence of exogenous TGFβ+PDGF-BB, all donors

CC[C@@H]1NC(=O)[C@H]([C@H](O)[C@H](C)CCCCCCNC(C)=O)N(C)C(=O)[C@H](C(C)C)N(C)C(=O)[C@H](CC(C)C)N(C)C(=O)[C@H](CC(C)C)N(C)C(=O)[C@@H](C)NC(=O)[C@H](C)NC(=O)[C@H](CC(C)C)N(C)C(=O)[C@H](C(C)C)NC(=O)[C@H](CC(C)C)N(C)C(=O)[C@@H](C)N(C)C1=O [CRV431]
log2FoldChange, gene AC009053.1 [1, 3]: 1.194
log2FoldChange, gene AC134772.2 [1, 3]: −4.561
log2FoldChange, gene ADH1B [1, 3]: 2.156
log2FoldChange, gene ADH1C [1, 3]: 1.869
log2FoldChange, gene ADH4 [1, 3]: 2.123
log2FoldChange, gene ADH6 [1, 3]: 1.903
log2FoldChange, gene ADIRF [1, 3]: 1.402
log2FoldChange, gene APLNR [1, 3]: 0.844
log2FoldChange, gene ASPG [1, 3]: 0.91
log2FoldChange, gene ATP13A4 [1, 3]: −3.082
log2FoldChange, gene C7 [1, 3]: 0.739
log2FoldChange, gene CA11 [1, 3]: −1.573
log2FoldChange, gene CBFA2T2 [1, 3]: 1.299
log2FoldChange, gene CD93 [1, 3]: −0.613
log2FoldChange, gene CHST1 [1, 3]: −1.087
log2FoldChange, gene COL5A3 [1, 3]: −0.842
log2FoldChange, gene CXADR [1, 3]: 1.61
log2FoldChange, gene CYP4A11 [1, 3]: 1.611
log2FoldChange, gene CYP26A1 [1, 3]: −1.283
log2FoldChange, gene CYP26B1 [1, 3]: −0.656
log2FoldChange, gene DCHS1 [1, 3]: −0.686
log2FoldChange, gene DLL4 [1, 3]: −0.69
log2FoldChange, gene DUOX2 [1, 3]: −2.182
log2FoldChange, gene DVL1 [1, 3]: 0.635
log2FoldChange, gene ENSG00000283623 (symbol NA) [1, 3]: −5.759
log2FoldChange, gene ERVK13-1 [1, 3]: −1.125
log2FoldChange, gene ESAM [1, 3]: −0.573
log2FoldChange, gene ESM1 [1, 3]: −1.401
log2FoldChange, gene ESR1 [1, 3]: 3.688
log2FoldChange, gene F2RL3 [1, 3]: −0.711
log2FoldChange, gene GLYATL1 [1, 3]: 1.438
log2FoldChange, gene GPR4 [1, 3]: −0.9
log2FoldChange, gene GRAP [1, 3]: −0.772
log2FoldChange, gene HIST2H2AA4 [1, 3]: −7.504
log2FoldChange, gene IGHV4-61 [1, 3]: 7.957
log2FoldChange, gene IGLON5 [1, 3]: −0.851
log2FoldChange, gene ISLR2 [1, 3]: −1.27
log2FoldChange, gene KDM6A [1, 3]: 0.785
log2FoldChange, gene LAMA4 [1, 3]: −0.939
log2FoldChange, gene LIMS3 [1, 3]: −1.705
log2FoldChange, gene LOXL2 [1, 3]: −0.948
log2FoldChange, gene MCAM [1, 3]: −0.841
log2FoldChange, gene MEF2C [1, 3]: −1.013
log2FoldChange, gene MEG3 [1, 3]: −0.853
log2FoldChange, gene MRC2 [1, 3]: −0.773
log2FoldChange, gene MROH2A [1, 3]: 3.641
log2FoldChange, gene MT-CO1 [1, 3]: −0.85
log2FoldChange, gene NID2 [1, 3]: −0.755
log2FoldChange, gene NXPH4 [1, 3]: −0.808
log2FoldChange, gene PAN2 [1, 3]: 1.019
log2FoldChange, gene PANK3 [1, 3]: 0.687
log2FoldChange, gene PCDH12 [1, 3]: −0.741
log2FoldChange, gene PHF8 [1, 3]: 0.709
log2FoldChange, gene PKLR [1, 3]: 2.127
log2FoldChange, gene PLXNA2 [1, 3]: 1.326
log2FoldChange, gene POU6F1 [1, 3]: −1.716
log2FoldChange, gene PPP1R16B [1, 3]: −1.016
log2FoldChange, gene RALGPS2 [1, 3]: 0.836
log2FoldChange, gene RBMXL1 [1, 3]: −8.265
log2FoldChange, gene RCCD1 [1, 3]: −1.838
log2FoldChange, gene RHCG [1, 3]: −0.927
log2FoldChange, gene RPS7P1 [1, 3]: 2.668
log2FoldChange, gene SLC4A8 [1, 3]: −2.641
log2FoldChange, gene SLC26A6 [1, 3]: −0.692
log2FoldChange, gene SLC39A5 [1, 3]: 1.92
log2FoldChange, gene SMC5 [1, 3]: 0.799
log2FoldChange, gene STRA6 [1, 3]: −1.639
log2FoldChange, gene STX16 [1, 3]: 1.025
log2FoldChange, gene TDO2 [1, 3]: 0.916
log2FoldChange, gene TMEM70 [1, 3]: 1.062
log2FoldChange, gene TTYH2 [1, 3]: −1.114
log2FoldChange, gene UBD [1, 3]: −1.035
log2FoldChange, gene VWA8 [1, 3]: 1.514
log2FoldChange, gene ZC3H10 [1, 3]: 1.022
log2FoldChange, gene ZDHHC20 [1, 3]: 1.207
log2FoldChange, gene ZNF461 [1, 3]: 1.391
expression of fibrosis-related genes by RNA-Seq ([1]; collagen genes, collagen hydroxylases and oxidases, ACTA2, VEGF, TIMPs): decreased expression of many fibrosis-related genes
fold change in RNA, DUOX2 [1, 4]: −4.5 fold
fold change in RNA, ESM1 [1, 4]: −2.6 fold
fold change in RNA, LOXL2 [1, 4]: −1.9 fold
fold change in RNA, RCCD1 [1, 4]: −3.6 fold
fold change in RNA, STRA6 [1, 4]: −3.1 fold
fold change in RNA, UBD/FAT10 [1, 4]: −2.0 fold
procollagen and fibronectin secretion ([2]; ELISA, with or without TGFβ stimulation): dose-dependently decreased procollagen and fibronectin secretion from all cell types
cell viability ([2]; clinically relevant concentrations): without causing any reduction in cell viability
decrease of ECM production ([2]; clinically relevant concentrations, collagen and fibronectin): up to 55%
